Results taken from the NIST ThermoML archive (doi:10.1021/je900715y).
Numbers after ± are expanded uncertainties.

How the values were obtained:
[1] = 101.3 kPa, Liquid
[2] = xn = mol fraction of the nth substance listed; conditions: 101.3 kPa, Liquid, x2 = 0

SMILES	mass density ([1]; 288.15 K)	mass density ([1]; 293.15 K)	mass density ([1]; 298.15 K)	mass density ([1]; 303.15 K)	mass density ([1]; 308.15 K)	mass density ([1]; 313.15 K)	mass density ([1]; 318.15 K)	mass density ([1]; 323.15 K)	mass density ([2]; 288.15 K)	mass density ([2]; 293.15 K)	mass density ([2]; 298.15 K)	mass density ([2]; 303.15 K)	mass density ([2]; 308.15 K)	mass density ([2]; 313.15 K)	mass density ([2]; 318.15 K)	mass density ([2]; 323.15 K)
CCC(C)O (centres undefined) [butan-2-ol]	810.689 ± 0.55 kg/m3	806.646 ± 0.56 kg/m3	802.528 ± 0.56 kg/m3	798.326 ± 0.57 kg/m3	794.03 ± 0.57 kg/m3	789.632 ± 0.58 kg/m3	785.117 ± 0.58 kg/m3	780.515 ± 0.59 kg/m3								
CCCCCCC [heptane]	687.954 ± 0.64 kg/m3	683.733 ± 0.64 kg/m3	679.494 ± 0.65 kg/m3	675.229 ± 0.66 kg/m3	670.941 ± 0.66 kg/m3	666.621 ± 0.67 kg/m3	662.273 ± 0.68 kg/m3	657.896 ± 0.68 kg/m3								
CCCCCCC [heptane] + CCC(C)O									687.954 ± 0.64 kg/m3	683.733 ± 0.64 kg/m3	679.494 ± 0.65 kg/m3	675.229 ± 0.66 kg/m3	670.941 ± 0.66 kg/m3	666.621 ± 0.67 kg/m3	662.273 ± 0.68 kg/m3	657.896 ± 0.68 kg/m3
